Among the data in article PMC12059914, “Discovery of Novel Allosteric Inhibitor Hits for Insulin-Regulated Aminopeptidase Provides Insights on Enzymatic Mechanism” (ACS Omega, 2025) are IC50, EC50 and KM values, retold here.

Common to all, as to type: biochemical
The target in one assay is T1, ERAP2 (Homo sapiens, UniProt Q6P179).
T1 construct: recombinant; Hi5 insect cells, baculovirus; Ni-NTA purified
Description: fluorogenic Arg-AMC hydrolysis, dose-response.

The target in assay [1] is T2, IRAP (insulin-regulated aminopeptidase) (Homo sapiens, UniProt Q9UIQ6).
T2 construct: gene LNPEP; extracellular (luminal) aminopeptidase domain; Rhodopsin 1D4 tag (given as N-terminal); secreted from stably transfected HEK 293S GnTI(-) cells; PDB ids are the docking structures
The experiment in a line: fluorogenic Leu-AMC hydrolysis, dose-response.

Assay [2] addresses T3, ERAP1 (Homo sapiens, UniProt Q9NZ08).
T3 construct: recombinant; Hi5 insect cells, baculovirus; Ni-NTA purified
Description: fluorogenic Leu-AMC hydrolysis, dose-response.

For assay [3], the target named is T2, IRAP (insulin-regulated aminopeptidase). Description: HPLC vasopressin trimming, dose-response.
Assay [4] concerns the target T3, ERAP1. The experiment in a line: fluorogenic Leu-AMC hydrolysis, dose-response. This is another data set of the same source.
In assay [5] the target is T2, IRAP (insulin-regulated aminopeptidase). Description: Michaelis-Menten, fluorescence. Conditions: pH 7.0, 1 nM enzyme, no inhibitor.

T2 sequence (Q9UIQ6 132-1025 limits assumed): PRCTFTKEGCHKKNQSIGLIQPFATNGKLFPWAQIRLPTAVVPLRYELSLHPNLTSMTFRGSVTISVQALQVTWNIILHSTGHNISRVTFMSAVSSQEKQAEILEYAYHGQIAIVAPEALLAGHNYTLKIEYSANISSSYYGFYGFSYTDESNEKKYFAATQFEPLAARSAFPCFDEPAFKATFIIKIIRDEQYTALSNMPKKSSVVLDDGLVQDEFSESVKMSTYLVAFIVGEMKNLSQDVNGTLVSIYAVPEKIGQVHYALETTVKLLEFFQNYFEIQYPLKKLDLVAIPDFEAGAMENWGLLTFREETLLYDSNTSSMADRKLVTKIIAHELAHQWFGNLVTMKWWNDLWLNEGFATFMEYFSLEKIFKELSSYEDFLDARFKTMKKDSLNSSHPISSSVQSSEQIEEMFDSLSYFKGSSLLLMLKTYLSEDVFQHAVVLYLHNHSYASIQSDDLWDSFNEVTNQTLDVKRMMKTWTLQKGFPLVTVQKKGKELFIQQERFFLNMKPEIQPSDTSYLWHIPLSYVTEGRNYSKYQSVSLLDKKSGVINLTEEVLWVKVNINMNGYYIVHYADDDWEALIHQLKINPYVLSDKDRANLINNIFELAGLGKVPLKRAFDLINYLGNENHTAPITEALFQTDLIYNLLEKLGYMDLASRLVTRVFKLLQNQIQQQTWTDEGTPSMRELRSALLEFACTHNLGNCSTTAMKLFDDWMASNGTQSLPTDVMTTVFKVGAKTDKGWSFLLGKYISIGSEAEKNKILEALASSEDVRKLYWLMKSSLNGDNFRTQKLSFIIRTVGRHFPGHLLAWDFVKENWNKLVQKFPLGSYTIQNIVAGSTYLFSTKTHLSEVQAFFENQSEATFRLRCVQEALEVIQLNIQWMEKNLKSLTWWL
T1 sequence (Q6P179 whole entry): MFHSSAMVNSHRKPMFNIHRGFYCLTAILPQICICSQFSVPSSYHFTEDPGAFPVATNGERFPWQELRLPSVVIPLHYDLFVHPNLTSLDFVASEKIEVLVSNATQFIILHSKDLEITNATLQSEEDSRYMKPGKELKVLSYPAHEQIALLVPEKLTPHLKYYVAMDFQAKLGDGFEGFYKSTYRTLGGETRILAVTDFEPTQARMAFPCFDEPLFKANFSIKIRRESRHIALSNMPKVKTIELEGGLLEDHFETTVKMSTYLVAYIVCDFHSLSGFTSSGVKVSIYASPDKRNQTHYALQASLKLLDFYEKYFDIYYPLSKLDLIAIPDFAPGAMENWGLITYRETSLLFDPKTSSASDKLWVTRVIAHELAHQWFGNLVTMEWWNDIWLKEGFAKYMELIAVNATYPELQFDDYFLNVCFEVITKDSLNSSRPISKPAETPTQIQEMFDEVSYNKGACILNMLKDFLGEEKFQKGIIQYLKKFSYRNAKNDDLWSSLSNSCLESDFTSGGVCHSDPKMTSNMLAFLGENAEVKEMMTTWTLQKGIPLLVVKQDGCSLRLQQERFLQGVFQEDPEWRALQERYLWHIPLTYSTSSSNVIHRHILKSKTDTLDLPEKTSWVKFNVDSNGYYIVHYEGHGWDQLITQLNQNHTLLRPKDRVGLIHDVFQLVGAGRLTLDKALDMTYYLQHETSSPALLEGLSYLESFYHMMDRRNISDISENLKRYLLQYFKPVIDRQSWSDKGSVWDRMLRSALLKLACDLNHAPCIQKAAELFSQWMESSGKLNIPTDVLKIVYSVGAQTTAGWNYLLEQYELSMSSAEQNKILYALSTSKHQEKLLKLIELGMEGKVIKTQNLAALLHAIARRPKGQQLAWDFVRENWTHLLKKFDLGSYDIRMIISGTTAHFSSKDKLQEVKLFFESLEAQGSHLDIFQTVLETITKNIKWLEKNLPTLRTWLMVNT
T3 sequence (Q9NZ08 whole entry): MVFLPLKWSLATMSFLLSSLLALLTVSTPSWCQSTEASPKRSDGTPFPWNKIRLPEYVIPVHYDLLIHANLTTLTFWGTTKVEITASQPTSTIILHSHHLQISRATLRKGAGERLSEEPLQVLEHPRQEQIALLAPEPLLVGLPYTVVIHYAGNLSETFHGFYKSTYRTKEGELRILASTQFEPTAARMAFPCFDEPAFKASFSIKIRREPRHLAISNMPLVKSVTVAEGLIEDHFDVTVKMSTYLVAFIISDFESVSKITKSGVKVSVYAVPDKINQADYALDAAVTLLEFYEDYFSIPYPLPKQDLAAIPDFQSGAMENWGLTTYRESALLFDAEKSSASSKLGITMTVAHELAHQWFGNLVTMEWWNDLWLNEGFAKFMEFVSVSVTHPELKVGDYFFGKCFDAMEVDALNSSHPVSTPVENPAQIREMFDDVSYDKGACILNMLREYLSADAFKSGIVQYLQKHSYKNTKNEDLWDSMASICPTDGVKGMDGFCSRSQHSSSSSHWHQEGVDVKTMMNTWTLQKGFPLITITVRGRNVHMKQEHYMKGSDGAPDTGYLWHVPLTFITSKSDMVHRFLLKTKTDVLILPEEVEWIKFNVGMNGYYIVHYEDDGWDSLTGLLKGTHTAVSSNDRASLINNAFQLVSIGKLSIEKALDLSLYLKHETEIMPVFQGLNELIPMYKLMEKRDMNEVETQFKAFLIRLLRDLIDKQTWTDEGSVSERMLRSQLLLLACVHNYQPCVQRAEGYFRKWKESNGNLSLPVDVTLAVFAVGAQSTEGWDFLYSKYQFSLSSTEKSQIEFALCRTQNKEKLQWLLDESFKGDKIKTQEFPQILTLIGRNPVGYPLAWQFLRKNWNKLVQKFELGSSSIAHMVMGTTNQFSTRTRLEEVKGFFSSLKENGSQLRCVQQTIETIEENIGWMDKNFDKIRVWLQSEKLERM

The IC50 is the point on the concentration scale where inhibition reaches its midpoint. A lower IC50 goes with greater potency. Regarding `O=C(O)c1cc(CN2CCCCC2CCCc2ccccc2)[nH]n1` (racemic) [compound 8], the values for the IC50 (on ERAP2; in assay [1]; on ERAP1 [2]) were over 10000 µM, 30 µM and over 300 µM, respectively.
`O=C(O)C1(CF)CCN(Cc2cc3c(Br)cc(F)cc3[nH]2)C1` (racemic) [compound 2] gave a half-inhibitory concentration (IC50) in assay [3] of 280 µM.
Usually EC50 stands for the midpoint of the concentration-response curve. A low value points to greater potency. On to `NCc1cc(C(=O)NC(Cc2ccccc2Cl)c2ccccc2)n[nH]1` (racemic) [compound 11], for which the 50% inhibitory concentration (IC50) amounted to 1300 µM against ERAP2 and 125 µM in assay [1]. The compound also had an EC50 on ERAP1 [4] of about 450 µM.
Consider `Cc1ccc(CC(C)(CO)NC(=O)c2cc(-c3c[nH]c4ccccc34)[nH]n2)cc1` (racemic) [compound 17], for which the IC50 was 3600 µM against ERAP2, 208 µM in assay [1] and over 300 µM at ERAP1 [2].
For `Cc1cc(=O)oc2cc(NC(=O)[C@@H](N)CC(C)C)ccc12` [Leu-AMC], the KM result in assay [5] is listed as “Michaelis–Menten analysis of (A, B) Leu-AMC substrate digestion by IRAP”.
